We go through two compounds from patent publication US9526681B2, “Compositions and methods for treating dental caries” (Colgate-Palmolive Company, priority 2012, dated 2016).

This assay relates to salivary sediment (oral cavity bacteria). As to the kind of experiment: Ammonia production by salivary sediment incubated with sucrose (diagnostic ammonia assay kit). The format is cell-based. The conditions noted are these: 0.1% sucrose, 37 degrees Celsius, 30 minutes; for ammonia production, Mean: mean of three trials. The method, then:
In order to investigate the effects of arginine alone, mixtures of arginine and bisabolol and bisabolol alone, on the production of ammonia in the present or oral bacterium the following procedures are carried out. Stimulated whole saliva is collected on ice and centrifuged for 15 minutes at 4000 rpm to obtain a pellet and salivary supernatant. The pellet, which is termed the salivary sediment, contains a representative array of the oral microbes found in the oral cavity. This pellet is washed twice in cold filter sterilized deionized water by centrifugation for 10 minutes at 4000 rpm.
The salivary sediment is then diluted to 50% with cold filter sterilized deionized water. Stock solutions of 1% arginine and 1% sucrose in filter sterilized deionized water are made, and a stock solution of 1% bisabolol in ethanol is also made. Reaction mixtures tested contain 16.7% final concentration salivary sediment, 0.1% final concentration sucrose and 0.0871% final concentration arginine. The control reaction mixture contains only salivary sediment, sucrose and arginine in the salivary supernatant base. The test solutions have a final concentration of 0.05 and 0.1 bisabolol, respectively. The reaction mixtures are then incubated at 37 degrees Celsius for 30 minutes with mild agitation before determining ammonia production. A standard diagnostic ammonia assay kit is used to quantify ammonia produced.
Table 1 (below) describes the results of the procedures described above, wherein the ammonia production is measured in terms of nanomole per milligram (nm/mg).
Column A in Table 1 describes data collected for three trials of L-arginine (Control) reaction mixtures that contain salivary sediment and salivary supernatant with final concentrations of 0.1% sucrose and 0.0871% L-arginine. Column B in Table 1 describes data collected for three trials of 0.05% bisabolol plus arginine reaction mixtures that contain salivary sediment and salivary supernatant with final concentrations of 0.1% sucrose, 0.05% bisabolol and 0.0871% L-arginine. Column C in Table 1 describes data collected for three trials of 0.05% bisabolol reaction mixtures that contain salivary sediment and salivary supernatant with final concentrations of 0.1% sucrose and 0.05% bisabolol. Column D in Table 1 describes data collected for three trials of 0.1% bisabolol plus arginine reaction mixtures that contain salivary sediment and salivary supernatant with final concentrations of 0.1% sucrose, 0.1% Bisabolol and 0.0871% L-arginine. Column E in Table 1 describes data collected for three trials of 0.1% bisabolol reaction mixtures that contain salivary sediment and salivary supernatant with final concentrations of 0.1% sucrose and 0.1% bisabolol.

[1] abbreviates: 0.0871% L-arginine, no bisabolol, 16.7% salivary sediment.
Where [2] appears, read: 0.05% bisabolol (with 0.0871% L-arginine in the combination), salivary sediment.
Where [3] appears, read: 0.1% bisabolol (with 0.0871% L-arginine in the combination), salivary sediment.

With `N=C(N)NCCC[C@H](N)C(=O)O` [Arginine, L-arginine, reference compound], under setting [1], the “ammonia production, Trial 1” value is recorded as 1532.40 nm/mg; the “ammonia production, Trial 2” value was 1799.88 nm/mg; the “ammonia production, Trial 3” value amounted to 986.31 nm/mg; the “ammonia production, Mean” value is listed as 1439.53 nm/mg.
Consider `CC(C)=CCC[C@](C)(O)C1CC=C(C)CC1` (stereo partly drawn) [Bisabolol, bisabolol], for which, under setting [2], the “ammonia production, Trial 1” value is 200.61 nm/mg; the “ammonia production, Trial 2” value is listed as 27.86 nm/mg; the “ammonia production, Trial 3” value is 66.87 nm/mg; the “ammonia production, Mean” value is reported as 98.45 nm/mg. Also, under setting [3], the “ammonia production, Trial 1” value is 133.74 nm/mg; the “ammonia production, Trial 2” value is given as 562.81 nm/mg; the “ammonia production, Trial 3” value is reported as 228.47 nm/mg; the “ammonia production, Mean” value is reported as 308.34 nm/mg.
